Experimental data from patent US5432165A, “Methods for the treatment of infection caused by Hepatitis B virus (HBV)” (priority 1992, dated 1995).
“Also recorded” adds a separate entry of the source.

Key:
[1] = Safety of oral FIAU in HIV-infected patients with chronic hepatitis B
Description: Cohorts of five HIV-infected patients with chronic hepatitis B were studied at the tolerated doses. Plasma levels of FIAU and its major deiodinated metabolite FAU were determined two hours after dosing (peak levels) and just prior to dosing (trough levels) following the initial dose of FIAU and again on Days 3, 7, and 14 in order to make estimates of pharmacokinetic parameters including accumulation of drug or principal metabolite.
This study is an open label, uncontrolled trial. […] Tolerated doses could be studied in an additional five patient cohort of chronic hepatitis B patients, who were potentially more at risk of side effects. A month of post-treatment follow-up was provided for the hepatitis cohorts due to the known propensity of this disease to "flare" after therapy.
Additionally, all patients had to have completed the screening tests within four weeks of starting therapy, except for diagnostic HSV, VZV or CMV cultures. Those enrolled into the five patient cohorts of chronic hepatitis B patients had the same entry requirements, except that they had to have a history of chronic hepatitis B and be surface antigen positive. Liver function tests (AST, ALT, GGT, and bilirubin) could be Grade 2 or less at study entry for these patients. Patients receiving pentamidine aerosol for prophylaxis of recurrent Pneumocystis pneumonia could continue on this therapy during the study.
Patients were evaluated clinically at the screening visit, and on Days 1, 3, 7, 10, and 14. The hepatitis patients were additionally evaluated on Days 21 and 42. The blood chemistry and urinalysis tests were repeated additionally on Days 2 and 5.
Clinical evaluations consisted of a physical exam, which included a test of lower extremity muscle strength, medical history, systems review, grading of non-laboratory signs and symptoms of toxicity, and listing of concomitant medications. Additionally, at visits with clinical evaluations after Day 1, any adverse experiences were recorded.
The Day 3 safety profile consisted of the clinical evaluation, hematology, serum biochemistry, urinalysis, stool guaiac tests and plasma samples for peak and trough levels of FIAU and its major metabolite FAU. On Day 7 patients underwent clinical evaluation, an ECG, peak and trough serum samples, T cell profile, and hematology, serum biochemistry, urinalysis, and stool guaiac tests. A clinical evaluation, hematology, serum biochemistry, and urinalysis tests were done on Day 10. These were repeated for the Day 14 evaluation with the addition of an ECG, T cell profile, stool guaiac, and peak and trough plasma samples. The post-treatment evaluations of the hepatitis patients on Days 21 and 42 consisted of a clinical evaluation and serum biochemistry tests.

[2] = tested on: hepatitis B virus (HBV); test: Effect of oral FIAU on plasma HBV DNA and HBV DNA polymerase in HIV-infected patients with chronic hepatitis B; format: in vivo, human
Description: Effects on hepatitis were evaluated principally by changes in HBV DNA and viral DNA polymerase. Secondary markers were surface antigen and e antigen. The hepatitis tests were done at Baseline and on Days 3, 7, 14, 21 (7 days post-treatment) and 42 (28 days post-treatment).
Of the 13 "tolerance" patients, e.g., non-hepatitis patients, enrolled, all received the study drug and all are included in the safety analysis. […] They had received a single dose of the study drug, and has, therefore, been included in the safety analysis, but excluded from the efficacy analysis. All of the remaining hepatitis patients had sufficient baseline levels of HBV DNA (>20 pg/ml) and viral DNA polymerase (>300 cpm) in their serum to be useful for determining changes associated with FIAU dosing and all completed the full two weeks of dosing. Therefore, the remaining six hepatitis patients were included in both the safety and efficacy analyses.
The results of clinical investigations conducted at submilligram per kilogram daily doses of FIAU are presented below. […]

[3] = Peak and trough plasma levels of FIAU and FAU by HPLC; format: in vivo, human; details: for concentration at 24 h: FIAU trough plasma concentration
Text: Additionally at Baseline, archive plasma samples were taken.

[4] = 0.1 mg/kg-day, two patients with HBV DNA under 1000 pg/ml
[5] = 0.5 mg/kg-day, four patients with entry HBV DNA <1000 pg/ml
[6] = human, in vivo, po, 1 mg/kg/day, 24 h

O=c1[nH]c(=O)n([C@@H]2O[C@H](CO)[C@@H](O)[C@@H]2F)cc1I [FIAU, 1-(2'-deoxy-2'-fluoro-β-D-arabinofuranosyl)-5-iodouracil]
tolerance compared with 1.0 or 0.5 mg/kg-day ([1]; 0.1 mg/kg-day): much better tolerated
incidents of fatigue ([1]; 0.1 mg/kg-day, four patients): only one incident of fatigue
tolerance of oral FIAU ([1]; 1.0 mg/kg-day TID 14 days, six hepatitis patients): completed the 14 days of therapy with no untoward effects; also recorded: relatively well-tolerated; also recorded: All six patients completed the full course of therapy
increase in AST and ALT values, Patient 406 ([1]; 1.0 mg/kg-day, 28 days after completion of therapy): ~5 fold
myositis ([1]; 1.0 mg/kg-day, Patient 101, after dosing was completed): severe myositis; also recorded: One patient experienced an episode of myositis
average drop in lymphocytes ([1]; 1.0 mg/kg-day, hepatitis patients): 750 cells/mm^3
decrease in average CD4 count ([1]; 1.0 mg/kg-day, hepatitis patients, Baseline to Day 14, p=0.03): 40%
average CD4 count at Day 14 ([1]; 1.0 mg/kg-day, hepatitis patients, 691 at Baseline): 415
average WBC at end of therapy ([1]; 1.0 mg/kg-day, hepatitis patients, baseline average 4,690, p=0.0085): 3,430
average drop in neutrophils ([1]; 1.0 mg/kg-day, hepatitis patients, not significant): approximately 300 cell/mm^3
decrease in lymphocytes ([1]; 1.0 mg/kg-day, hepatitis patients, p=0.00125): 39%
significance of increases in liver enzymes during therapy ([1]; 1.0 mg/kg-day, hepatitis patients, p>0.1): increases in liver enzymes were not
patients with mild to moderate nausea ([1]; 1.0 mg/kg-day, six hepatitis patients): Four patients reported mild to moderate nausea
change of AST and ALT values, Patient 401 ([1]; 1.0 mg/kg-day, very end of therapy, back below Baseline after a month of follow-up): doubling
toxicity overall ([1]; doses of 0.1 to 1.0 mg/kg-day, HIV-infected patients with chronic hepatitis B): have not produced unacceptable toxicity
incidence of fatigue ([1]; the other groups (1.0 and 0.5 mg/kg-day)): 40-50%
average reduction of serum HBV DNA at Day 3 and One Week visits [2, 4]: 60%
average reduction of serum HBV DNA by end of therapy at two weeks [2, 4]: 93%
suppression of serum HBV DNA one week post-treatment [2, 4]: 86%
drop of HBV DNA by the end of therapy ([2]; 0.1 mg/kg-day, two patients with baseline over 1000 pg/ml): ≤ 25%
average HBV DNA level, percent of baseline, end of one week of dosing [2, 5]: less than 20%
average HBV DNA level, percent of baseline, end of two week treatment [2, 5]: less than 10%
drop of average serum HBV DNA after the first two days of therapy [2, 5]: 61%
suppression of average HBV DNA one month post-treatment [2, 5]: over 75%
drop of serum HBV DNA in one week of therapy ([2]; 0.5 mg/kg-day, single patient with baseline above 1000 pg/ml): 83%
effect on plasma HBV DNA and viral DNA polymerase levels ([2]; 1.0 mg/kg-day): rapid, consistent, profound and prolonged effect
surface antigen and e antigen status ([2]; 1.0 mg/kg-day): remained positive in all patients to date, with one reported seroreversion of e antigen in Patient 401 approximately 23 weeks post-treatment
continuing suppression of HBV DNA polymerase in serum ([2]; 1.0 mg/kg-day, five of the six patients): > 80%
clearing of HBV DNA from the plasma ([2]; 1.0 mg/kg-day, four weeks after therapy): two of these became totally negative; also recorded: Two showed a complete clearing of HBV DNA from the plasma
average decrease of HBV DNA between Baseline (Day 1) and Day 3 ([2]; 1.0 mg/kg-day, six patients): over 70%
reduction in plasma HBV DNA by the end of therapy ([2]; 1.0 mg/kg-day, two weeks, five of the six patients): more than 90%
FIAU peak plasma concentration, range maximum ([3]; 1.0 mg/kg-day, steady state, Days 3-14): 1.66 µg/mL
accumulation in the plasma with continued dosing ([3]; FIAU 1.0 mg/kg-day, 14 days): Neither FIAU nor FAU tended to accumulate; also recorded: Neither compound tended to accumulate
FIAU trough plasma value, typical ([3]; human, in vivo, po, 1 mg/kg/day): under 0.2 μg/ml
FIAU peak plasma concentration, mean [3, 6]: 0.58 µg/mL
FIAU trough plasma concentration, mean [3, 6]: 0.05 µg/mL
Cmax at 24 h ([3]; human, in vivo, po, 1 mg/kg/day, FIAU peak plasma concentration, mean): 580 ng/mL
Cmax at 2 h ([3]; human, in vivo, po, 1 mg/kg/day, FIAU peak plasma value at steady state, average): ~1000 ng/mL
concentration at 24 h ([3]; human, in vivo, po, 1 mg/kg/day, mean): 50 ng/mL
concentration at 24 h ([3]; human, in vivo, po, 1 mg/kg/day, range maximum): 130 ng/mL
